Read-outs that look alike come from different tables or passages of the source.
Experiments:
mice [1] = assay: Rectal temperature in mice, compound in combination with 3 mg/kg Δ^9-THC (antagonism test); type: in vivo; settings: at 10 mg/kg i.v.
Protocol: (§1) Male ICR mice (25-32 g), purchased from Harlan (Dublin, Va.), were housed in groups of five. All animals were kept in a temperature-controlled (20-22° C.) environment with a 12-hour light-dark cycle (lights on at 7 a.m.). Separate mice were used for testing each drug dose in the in vivo behavioral procedures. The mice were maintained on a […] light: dark cycle, and received food and water ad libitum. Brain tissue for binding studies was obtained from male Sprague-Dawley rats (150-200 g) purchased from Harlan Laboratories (Dublin, Va.).
(§2) Measurement of spontaneous activity in mice occurred in standard activity chambers interfaced with a Digiscan Animal Activity Monitor (Omnitech Electronics, Inc., Columbus, Ohio). A standard tail-flick apparatus (described by Dewey et al., 1970) and a digital thermometer (Fisher Scientific, Pittsburgh, Pa.) were used to measure antinociception and rectal temperature, respectively.
(§3) All drugs were administered to the mice intravenously (i.v.) in the tail vein at a volume of 0.1 ml/10 g.
(§4) Maximum latency of 10 sec was used.

CB1 receptor = CB1 receptor (Rattus norvegicus, UniProt P20272); assay: biochemical; type: binding; settings: for Ki: 1 nM [3H] CP 55,940, rat whole brain P2 membranes, 30° C. for 1 hr; for CB1 binding affinity, fold decrease on shortening the n-pentyl amide: compared to O-1269
Protocol: as §1
All assays, as described briefly below, were performed in triplicate, and the results represent the combined data from three to six individual experiments. Following decapitation and rapid removal of the brain, whole brain was homogenized and centrifuged. The resulting pellet was termed P1. The supernatant was saved and combined with the two subsequent supernatants obtained from washing of the P1 pellet. The combined supernatant fractions were centrifuged, resulting in the P2 pellet. After further incubation and centrifuging, this pellet was resuspended in assay buffer to a protein concentration of approximately 2 mg/ml. The membrane preparation was quickly frozen in a bath solution of dry ice and 2-methylbutane (Sigma Chemical Co., St. Louis, Mo.), then stored at −80° C. for no more than 2 weeks. […] Binding was initiated by the addition of 150 μg of P2 membrane to test tubes containing 1 nM of [3H] […] Following incubation at 30° C. for 1 hr, binding was terminated by addition of ice-cold buffer and vacuum filtration through pretreated filters in a 12-well sampling manifold (Millipore, Bedford, Mass.). After washing, filters were placed into plastic scintillation vials (Packard, Downer Grove, Ill.) and shaken. The quantity of radioactivity present was determined by liquid scintillation spectrometry.

mice [2] = assay: Spontaneous activity in mice, compound in combination with 3 mg/kg Δ^9-THC (antagonism test); type: in vivo; settings: for SA: maximum % antagonism of 3 mg/kg Δ^9-THC: analog 10 min before Δ^9-THC
Protocol: as §1, §2, §3, §4

mice [3] = assay: Tail-flick antinociception in mice, compound alone (agonism test); type: in vivo; settings: for ED50: Mus musculus, iv
Protocol: as §1, §2, §3, §4

mice [4] = assay: Spontaneous (locomotor) activity in mice, compound alone (agonism test); type: in vivo; settings: for Max stim of spontaneous locomotor activity, Compound Alone (in words): at the dose(s) [mg/kg] given in parentheses in the cell
Protocol: as §1, §2, §3, §4

mice [5] = assay: Tail-flick antinociception in mice, compound in combination with 3 mg/kg Δ^9-THC (antagonism test); type: in vivo; settings: at 10 mg/kg i.v.
Protocol: as §1, §2, §3, §4

mice [6] = assay: Rectal temperature (hypothermia) in mice, compound alone (agonism test); type: in vivo; settings: for ED50: Mus musculus, iv
Protocol: as §1, §2, §3, §4

[7] = read-out: TF: > dose, 50% activity not achieved at this highest dose tested
[8] = Mus musculus, iv, at 10 mg/kg i.v., read-out: Max % inhibit of spontaneous locomotor activity, Compound Alone
[9] = Mus musculus, iv, mice, i.v., read-out: SA: > dose, 50% activity not achieved at this highest dose tested
[10] = read-out: RT: > dose, 50% activity not achieved at this highest dose tested
[11] = 20 min, i.v., 20 min post-injection, 95% confidence limits in parentheses, * = estimated ED50, dose-effect curve not linear, read-out: TF (tail flick, % MPE) ED50
[12] = Mus musculus, iv, mice, i.v., 95% confidence limits in parentheses, * = estimated ED50, dose-effect curve not linear, read-out: SA (suppression of spontaneous activity) ED50
[13] = 0.5 h, i.v., 30 min post-injection, 95% confidence limits in parentheses, read-out: RT (rectal temperature) ED50

CB1 receptor, sequence (P20272 whole entry): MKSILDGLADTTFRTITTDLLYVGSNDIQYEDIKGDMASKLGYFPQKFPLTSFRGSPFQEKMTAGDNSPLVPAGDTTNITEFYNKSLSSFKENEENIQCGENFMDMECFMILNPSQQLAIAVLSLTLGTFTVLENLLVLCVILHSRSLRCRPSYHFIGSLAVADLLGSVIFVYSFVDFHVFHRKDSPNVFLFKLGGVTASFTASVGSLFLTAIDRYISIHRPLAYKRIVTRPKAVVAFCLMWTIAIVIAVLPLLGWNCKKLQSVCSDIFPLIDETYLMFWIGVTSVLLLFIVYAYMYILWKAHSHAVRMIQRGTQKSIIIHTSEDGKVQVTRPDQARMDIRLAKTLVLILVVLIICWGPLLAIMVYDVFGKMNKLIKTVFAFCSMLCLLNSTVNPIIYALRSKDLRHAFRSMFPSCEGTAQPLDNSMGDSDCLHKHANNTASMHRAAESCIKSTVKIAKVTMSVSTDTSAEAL

Row | Compound | Ki (CB1 receptor; read-out: Ki) | ED50 (mice [3]; [7]) | inhibition in vivo at 10 mg/kg (mice [4]; [8]) | ED50 (mice [4]; [9]) | Max stim of spontaneous locomotor activity, Compound Alone (in words) (mice [4]) | ED50 (mice [6]; [10]) | Ki (CB1 receptor; Ki (nM)) | CB1 binding affinity, fold decrease on shortening the n-pentyl amide (CB1 receptor) | ED50 (mice [3]; [11]) | ED50 (mice [4]; [12]) | ED50 (mice [6]; [13]) | further results
1 | CCCCCc1ccc(-n2nc(C(=O)NN3CCCCC3)c(C)c2-c2ccc(Cl)cc2)cc1 [Compound O-1255] | 433 ± 103 nM | > 30 mg/kg | 20% | > 30 mg/kg | None (3, 10 & 30) | > 30 mg/kg | – | – | – | – | – | RT: maximum % antagonism of 3 mg/kg Δ^9-THC (mice [1]): 14% (10); CB1 binding affinity, fold less than the n-butyl compound (CB1 receptor; compared to O-1254): ~2 fold; Max % inhibit of spontaneous locomotor activity, Compound with 3 mg/kg Δ^9-THC (mice [2]; at 10 mg/kg i.v.): 65% (10); SA: maximum % antagonism of 3 mg/kg Δ^9-THC (mice [2]; at 10 mg/kg i.v.): 0% (10); Max stim of spontaneous locomotor activity, Compound with 3 mg/kg Δ^9-THC (in words) (mice [2]; at the dose(s) [mg/kg] given in parentheses in the cell): None (10); % MPE: maximum % antagonism of 3 mg/kg Δ^9-THC (mice [5]): 13% (10)
2 | CCCNC(=O)c1nn(-c2ccc(Cl)cc2Cl)c(-c2ccc(Cl)cc2)c1C [Compound O-1399, N-(n-propyl)-5-(4-chlorophenyl)-1-(2,4-dichlorophenyl)-4-methyl-1H-pyrazole-3-carboxamide] | – | – | – | – | None (3, 10 & 30) | – | 167 ± 32 nM | 5 fold | 24 µmol/kg | 9 µmol/kg | 10 µmol/kg | inhibition in vivo at 30 mg/kg (mice [4]; Mus musculus, iv, at 30 mg/kg i.v., read-out: Max % inhibit of spontaneous locomotor activity, Compound Alone): 100%
3 | Cc1c(C(=O)NN2CCCCC2)nn(-c2ccccc2)c1-c1ccc(Cl)cc1 [Compound O-1300] | – | > 30 mg/kg | – | > 30 mg/kg | – | > 30 mg/kg | 150 ± 20 nM | – | – | – | – | CB1 binding affinity, fold less than SR 141716A (CB1 receptor; compared to SR 141716A): 24 fold; change in vivo at 30 mg/kg (mice [4]; Mus musculus, iv, at 30 mg/kg i.v., read-out: Max stim of spontaneous locomotor activity, Compound Alone): 54%; Max % inhibit of spontaneous locomotor activity, Compound Alone (in words: stimulation instead of inhibition) (mice [4]; doses in mg/kg): stim at 30
4 | CCCCCc1ccc(-c2c(C)c(C(=O)NN3CCCCC3)nn2-c2ccc(Cl)cc2Cl)cc1 [Compound O-1302, N-(Piperidin-1-yl)-1-(2,4-dichlorophenyl)-4-methyl-5-(4-pentylphenyl)-1H-pyrazole-3-carboxamide] | – | > 30 mg/kg | – | > 30 mg/kg | – | > 30 mg/kg | 2.1 ± 0.08 nM | – | – | – | – | CB1 receptor binding affinity, fold greater than SR 141716A (CB1 receptor; compared to SR 141716A): approximately 3 fold; Max % inhibit of spontaneous locomotor activity, Compound with 3 mg/kg Δ^9-THC (mice [2]; at 0.3 mg/kg i.v.): 74% (0.3); SA: maximum % antagonism of 3 mg/kg Δ^9-THC (mice [2]; at 1 mg/kg i.v.): 91% (1); Max stim of spontaneous locomotor activity, Compound with 3 mg/kg Δ^9-THC (mice [2]; at 30 mg/kg i.v.): 107% (30); inhibition in vivo at 3 mg/kg (mice [4]; Mus musculus, iv, at 3 mg/kg i.v., read-out: Max % inhibit of spontaneous locomotor activity, Compound Alone): 26%; change in vivo at 10 mg/kg (mice [4]; Mus musculus, iv, at 10 mg/kg i.v., read-out: Max stim of spontaneous locomotor activity, Compound Alone): 2%
5 | Cc1c(C(=O)NCCF)nn(-c2ccc(Cl)cc2Cl)c1-c1ccc(Cl)cc1 [Compound O-1398, N-(2-fluoroethyl)-5-(4-chlorophenyl)-1-(2,4-dichlorophenyl)-4-methyl-1H-pyrazol-3-carboxamide] | 852 ± 175 nM | – | 97% | – | None (3, 10 & 30) | – | – | 27 fold | 13 µmol/kg | 7 µmol/kg | 8 µmol/kg | CB1 binding affinity, further fold reduction (CB1 receptor; compared to the n-propyl compound O-1399): 5 fold
6 | CCCCCc1ccc(-c2c(-c3ccc(Cl)cc3Cl)nn(C(=O)NN3CCCCC3)c2Br)cc1 [Compound O-1691, N-(N-Piperdyl)-3-(2,4-dichlrophenyl)-4-(4′-pentylphenyl)-5-bromopyrazole-carboxamide] | 1.5 ± 0.22 nM | – | – | – | – | – | – | – | – | – | – | Max % inhibit of spontaneous locomotor activity, Compound with 3 mg/kg Δ^9-THC (mice [2]; at 0.1 mg/kg i.v.): 91% (0.1); SA: maximum % antagonism of 3 mg/kg Δ^9-THC (mice [2]; at 0.3 mg/kg i.v.): 6% (0.3); Max stim of spontaneous locomotor activity, Compound with 3 mg/kg Δ^9-THC (mice [2]; at 3 mg/kg i.v.): 150% (3); TF: > dose, 50% activity not achieved at this highest dose tested (mice [3]; i.v.): >30 mg/kg; Max stim of spontaneous locomotor activity, Compound Alone (mice [4]; at 1 mg/kg i.v.): 66% (1); Max % inhibit of spontaneous locomotor activity, Compound Alone (mice [4]; at 3 mg/kg i.v.): 15% (3); SA: > dose, 50% activity not achieved at this highest dose tested (mice [4]; mice, i.v.): >30 mg/kg; RT: > dose, 50% activity not achieved at this highest dose tested (mice [6]; i.v.): >30 mg/kg

Source: US6509367B1 (priority 2001, dated 2003)
